Test results: PubChem BioAssay AID1963429 (Molecular Pharmacology Branch, DTP, NCI, 2024)

Tested on: 126254-015-R-J1-PDC complex spheroid growth, % test/control
Test: Anticancer human tumor 126254-015-R-J1-PDC patient-derived soft tissue sarcoma cell line growth inhibition [Asc]
Conditions: for IC50: curve of first compound; for viability, T/C: stronger effect = lower value; active = viability on the fitted dose curve at most 10% of control; inactive = the rest
How it was run: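 Complex spheroids combining tumor cells with HUVEC endothelial cells and human MSCs, at 37 degrees C, 5% CO2; agents tested alone or combined, half-log dilutions from at or near clinical Cmax, or 10 microM if Cmax unknown.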

[1] = second compound 0.1 µM, first compound 0.00316 µM
[2] = second compound 0.1 µM, first compound 0.01 µM
[3] = second compound 0.1 µM, first compound 0.0316 µM
[4] = second compound 0.1 µM, first compound 0.1 µM
[5] = second compound 0.1 µM, first compound 0.316 µM
[6] = second compound 0.1 µM, first compound 1 µM
[7] = second compound 0.316 µM, first compound 0.00316 µM
[8] = second compound 0.316 µM, first compound 0.01 µM
[9] = second compound 0.316 µM, first compound 0.0316 µM
[10] = second compound 0.316 µM, first compound 0.1 µM
[11] = second compound 0.316 µM, first compound 0.316 µM
[12] = second compound 0.316 µM, first compound 1 µM
[13] = second compound 1 µM, first compound 0.00316 µM
[14] = second compound 1 µM, first compound 0.01 µM
[15] = second compound 1 µM, first compound 0.0316 µM
[16] = second compound 1 µM, first compound 0.1 µM
[17] = second compound 1 µM, first compound 0.316 µM
[18] = second compound 1 µM, first compound 1 µM
[19] = second compound 3.16 µM, first compound 0.00316 µM
[20] = second compound 3.16 µM, first compound 0.01 µM
[21] = second compound 3.16 µM, first compound 0.0316 µM
[22] = second compound 3.16 µM, first compound 0.1 µM
[23] = second compound 3.16 µM, first compound 0.316 µM
[24] = second compound 3.16 µM, first compound 1 µM
[25] = second compound 10 µM, first compound 0.00316 µM
[26] = second compound 10 µM, first compound 0.01 µM
[27] = second compound 10 µM, first compound 0.0316 µM
[28] = second compound 10 µM, first compound 0.1 µM
[29] = second compound 10 µM, first compound 0.316 µM
[30] = second compound 10 µM, first compound 1 µM
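Also: spheroids exposed to compound for seven days.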
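For viability, T/C in this document: 100% = DMSO vehicle control wells.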

CCN1CCN(Cc2ccc(Nc3ncc(F)c(-c4cc(F)c5nc(C)n(C(C)C)c5c4)n3)nc2)CC1 + Cc1c(S(C)(=O)=O)c(-c2cc(F)cc(N3CCN(c4ccc(NS(=O)(=O)c5ccc(NC(CCN6CCC(C(=O)OCCCP(=O)(O)O)CC6)CSc6ccccc6)c(S(=O)(=O)C(F)(F)F)c5)cc4)CC3)c2)c(-c2ccc(Cl)cc2)n1C(C)C
> 1000 nM: IC50 (second compound 0.1 µM) | IC50 (second compound 0.316 µM) | IC50 (second compound 1 µM) | IC50 (second compound 3.16 µM) | IC50 (second compound 10 µM)
inactive: viability, T/C [1] 99.3% | viability, T/C [2] 95.5% | viability, T/C [3] 88.4% | viability, T/C [4] 90.1% | viability, T/C [5] 110% | viability, T/C [6] 98.4% | viability, T/C [7] 87.8% | viability, T/C [8] 89.1% | viability, T/C [9] 84.4% | viability, T/C [10] 95.5% | viability, T/C [11] 90.3% | viability, T/C [12] 87% | viability, T/C [13] 86.5% | viability, T/C [14] 81.7% | viability, T/C [15] 93.3% | viability, T/C [16] 86.4% | viability, T/C [17] 97.9% | viability, T/C [18] 73.3% | viability, T/C [19] 96.6% | viability, T/C [20] 87.7% | viability, T/C [21] 90.1% | viability, T/C [22] 72.4% | viability, T/C [23] 86.6% | viability, T/C [24] 87.3% | viability, T/C [25] 86.5% | viability, T/C [26] 90.4% | viability, T/C [27] 86.1% | viability, T/C [28] 98% | viability, T/C [29] 87.5% | viability, T/C [30] 73.8%

O=C(c1ccc(F)c(F)c1Nc1ccc(I)cc1F)N1CC(O)([C@@H]2CCCCN2)C1 + Cc1c(S(C)(=O)=O)c(-c2cc(F)cc(N3CCN(c4ccc(NS(=O)(=O)c5ccc(NC(CCN6CCC(C(=O)OCCCP(=O)(O)O)CC6)CSc6ccccc6)c(S(=O)(=O)C(F)(F)F)c5)cc4)CC3)c2)c(-c2ccc(Cl)cc2)n1C(C)C
inactive: viability, T/C [1] 87.3% | viability, T/C [2] 106% | viability, T/C [3] 106% | viability, T/C [4] 87.7% | viability, T/C [5] 70.7% | viability, T/C [6] 37.6% | viability, T/C [7] 88.5% | viability, T/C [8] 87.7% | viability, T/C [9] 84.7% | viability, T/C [10] 83.4% | viability, T/C [11] 60.9% | viability, T/C [12] 33.6% | viability, T/C [13] 89.2% | viability, T/C [14] 93.7% | viability, T/C [15] 83.9% | viability, T/C [16] 79.3% | viability, T/C [17] 65.5% | viability, T/C [18] 26.9% | viability, T/C [19] 88.1% | viability, T/C [20] 92% | viability, T/C [21] 75.5% | viability, T/C [22] 82.5% | viability, T/C [23] 55.8% | viability, T/C [24] 27.6% | viability, T/C [25] 90.1% | viability, T/C [26] 98% | viability, T/C [27] 80.2% | viability, T/C [28] 75.3% | viability, T/C [29] 49.6% | viability, T/C [30] 25.3%
321 nM: IC50 (second compound 10 µM)
502 nM: IC50 (second compound 0.316 µM)
644 nM: IC50 (second compound 0.1 µM)
494 nM: IC50 (second compound 1 µM)
420 nM: IC50 (second compound 3.16 µM)
